The subject of one experiment is Mus musculus. Description: Induction of rescue of anemia in RPS19-deficient mouse model for DBA assessed as improvement in erythrocytes production at 10 mg/kg, po dosed every 12 hrs for 5 times and measured 48 hrs after last dose. The conditions noted are these: time 108.0 hrs. It is filed as functional, organism-based.
For experiment [1], the target named is Ribosomal protein S6 kinase alpha-6 (Homo sapiens) (UniProt Q9UK32). The experiment can be described thus: Inhibition of RSK4 c-terminal kinase domain (unknown origin) assessed as residual ligand binding level at 10000 nM relative to control.
The target in experiment [2] is Dual specificity tyrosine-phosphorylation-regulated kinase 2 (Homo sapiens) (UniProt Q92630). The experiment can be described thus: Inhibition of DYRK2 (unknown origin) assessed as residual ligand binding level at 10000 nM relative to control.
Experiment [3] has as its target Homeodomain-interacting protein kinase 1 (Homo sapiens) (UniProt Q86Z02). Description: Inhibition of HIPK1 (unknown origin) assessed as residual ligand binding level at 10000 nM relative to control.
The next experiment is filed under the species Homo sapiens. Description: Inhibition of GCN2 kinase domain 2 […] mutant (unknown origin) assessed as residual ligand binding level at 10000 nM relative to control.
The target in experiment [4] is Casein kinase I isoform alpha-like (Homo sapiens) (UniProt Q8N752). Description: Inhibition of CSNK1A1L (unknown origin) assessed as residual ligand binding level at 10000 nM relative to control.
In experiment [5] the target is Mitogen-activated protein kinase 14 (Homo sapiens) (UniProt Q16539). The experiment can be described thus: Inhibition of p38-alpha (unknown origin) assessed as residual ligand binding level at 10000 nM relative to control.
Experiment [6] addresses Dual specificity tyrosine-phosphorylation-regulated kinase 1B (Homo sapiens) (UniProt Q9Y463). The experiment can be described thus: Inhibition of DYRK1B (unknown origin) assessed as residual ligand binding level at 10000 nM relative to control.
The target in experiment [7] is Casein kinase I isoform epsilon (Homo sapiens) (UniProt P49674). The experiment can be described thus: Inhibition of CSNK1E (unknown origin) assessed as residual ligand binding level at 10000 nM relative to control.
The target in experiment [8] is Casein kinase I isoform delta (Homo sapiens) (UniProt P48730). The experiment can be described thus: Inhibition of CSNK1D (unknown origin) assessed as residual ligand binding level at 10000 nM relative to control.
In experiment [9] the target is Casein kinase I isoform gamma-2 (Homo sapiens) (UniProt P78368). The experiment can be described thus: Inhibition of CSNK1G2 (unknown origin) assessed as residual ligand binding level at 10000 nM relative to control.
The target of experiment [10] is Cyclin-dependent kinase 19 (Homo sapiens) (UniProt Q9BWU1). Description: Inhibition of CDK19(CDK11) (unknown origin) assessed as residual ligand binding level at 10000 nM relative to control.
Experiment [11] concerns the target TGF-beta receptor type-1 (Homo sapiens) (UniProt P36897). Description: Inhibition of TGFBR1 (unknown origin) assessed as residual ligand binding level at 10000 nM relative to control.
The target in experiment [12] is Casein kinase I isoform gamma-3 (Homo sapiens) (UniProt Q9Y6M4). The experiment can be described thus: Inhibition of CSNK1G3 (unknown origin) assessed as residual ligand binding level at 10000 nM relative to control.
The target of experiment [13] is Casein kinase I isoform alpha (Homo sapiens) (UniProt P48729). Description: Inhibition of CSNK1A1 (unknown origin) assessed as residual ligand binding level at 10000 nM relative to control.
In experiment [14] the target is Death-associated protein kinase 1 (Homo sapiens) (UniProt P53355). Description: Inhibition of DAPK1 (unknown origin) assessed as residual ligand binding level at 10000 nM relative to control.
Experiment [15] addresses Serine/threonine-protein kinase pim-1 (Homo sapiens) (UniProt P11309). The experiment can be described thus: Inhibition of PIM1 (unknown origin) assessed as residual ligand binding level at 10000 nM relative to control.
In experiment [16] the target is Casein kinase I isoform gamma-1 (Homo sapiens) (UniProt Q9HCP0). Description: Inhibition of CSNK1G1 (unknown origin) assessed as residual ligand binding level at 10000 nM relative to control.
Experiment [17] has as its target Dual specificity tyrosine-phosphorylation-regulated kinase 1A (Homo sapiens) (UniProt Q13627). Description: Inhibition of DYRK1A (unknown origin) assessed as residual ligand binding level at 10000 nM relative to control.
In experiment [18] the target is T1, CDK8/CDK19 (Mus musculus) (UniProt Q8R3L8+Q8BWD8). The experiment can be described thus: Inhibition of CDK8/CDK19 assessed as rescue of proliferation of RPS19-deficient mouse erythroid progenitor cells by cell-based phenotypic screening assay. It is filed as tissue-based.
Experiment [19] relates to CD34-positive (myeloid/lymphoid) cell. Description: Rescue of proliferation of CD34+ erythroid progenitor cells isolated from DBA patient with RPS19 mutation at 200 nM measured at day 14 of culture. Type of experiment: functional, tissue-based. The conditions noted are these: Homo sapiens, time 14.0 day.
Experiment [20] has as its system Erythroid progenitor cell. Description: Increase in erythroid maturation of erythroid progenitor cells isolated from DBA patient assessed as increase in CD71 and CD235a positive cells level measured at day 8 of culture by flow cytometry. It is filed as functional, tissue-based. The conditions noted are these: Homo sapiens. In general terms: A flow cytometer gives signals particle by particle.

Experiment [21] relates to Erythroid progenitor cell. Description: Rescue of proliferation of CD34+ erythroid progenitor cells isolated from DBA patient with […] mutation at 200 nM measured at day 14 of culture. The conditions noted are these: Homo sapiens, time 14.0 day. It is filed as functional, tissue-based.
The subject of experiment [22] is CD34-positive (myeloid/lymphoid) cell. Description: Rescue of proliferation of CD34+ erythroid progenitor cells isolated from DBA patient with RPS26 mutation at 200 nM measured at day 14 of culture. It is filed as functional, tissue-based. The conditions noted are these: Homo sapiens, time 14.0 day.
A short description of experiment [23]: Rescue of cell survival defect in RPS19-deficient erythroid progenitor cells isolated from mouse model of DBA assessed as c-kit+ progenitor cell levels at 5 uM by 7-AAD dye based FACS analysis (reference value: 38%). It is filed as functional.
Experiment [24] can be described thus: Rescue of cell survival defect in RPS19-deficient erythroid progenitor cells isolated from mouse model of DBA assessed as live cell levels at 5 uM by 7-AAD dye based FACS analysis (reference value: 31%). Type of experiment: functional.
Experiment [25] is described as follows: Rescue of cell survival defect in RPS19-deficient erythroid progenitor cells isolated from mouse model of DBA assessed as c-kit+ progenitor cell levels at 0.03 uM by 7-AAD dye based FACS analysis (reference value: 38%). Type of experiment: functional.
Experiment [26] can be described thus: Rescue of cell survival defect in RPS19-deficient erythroid progenitor cells isolated from mouse model of DBA assessed as live cell levels at 0.03 uM by 7-AAD dye based FACS analysis (reference value: 31%). It is filed as functional.
The target in experiment [27] is T1, CDK8/CDK19 (Mus musculus). Description: Inhibition of CDK8/CDK19 assessed as rescue of proliferation of RPS19-deficient erythroid progenitor cells isolated from mouse model of DBA by cell-based phenotypic screening assay relative to control. It is filed as tissue-based.

Molecules are shown by their SMILES. Activity calls are given as the source filed them. The calls are words filed in the database; no cut-off is given here.

T1 sequence (Q8BWD8 whole entry, looked up): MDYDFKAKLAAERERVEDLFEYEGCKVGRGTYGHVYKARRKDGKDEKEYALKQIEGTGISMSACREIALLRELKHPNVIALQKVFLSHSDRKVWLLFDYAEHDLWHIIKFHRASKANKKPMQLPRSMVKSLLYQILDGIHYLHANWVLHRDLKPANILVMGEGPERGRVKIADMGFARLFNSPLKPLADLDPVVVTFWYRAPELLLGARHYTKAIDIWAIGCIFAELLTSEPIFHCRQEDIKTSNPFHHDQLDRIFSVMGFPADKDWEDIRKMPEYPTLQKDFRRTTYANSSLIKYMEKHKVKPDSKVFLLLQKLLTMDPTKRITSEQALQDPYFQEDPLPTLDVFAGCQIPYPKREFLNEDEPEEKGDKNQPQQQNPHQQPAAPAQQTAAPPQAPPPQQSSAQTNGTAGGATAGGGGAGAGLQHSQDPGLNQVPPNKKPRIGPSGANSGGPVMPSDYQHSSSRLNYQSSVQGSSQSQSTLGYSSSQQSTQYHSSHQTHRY
T1 sequence (Q8R3L8 whole entry, looked up): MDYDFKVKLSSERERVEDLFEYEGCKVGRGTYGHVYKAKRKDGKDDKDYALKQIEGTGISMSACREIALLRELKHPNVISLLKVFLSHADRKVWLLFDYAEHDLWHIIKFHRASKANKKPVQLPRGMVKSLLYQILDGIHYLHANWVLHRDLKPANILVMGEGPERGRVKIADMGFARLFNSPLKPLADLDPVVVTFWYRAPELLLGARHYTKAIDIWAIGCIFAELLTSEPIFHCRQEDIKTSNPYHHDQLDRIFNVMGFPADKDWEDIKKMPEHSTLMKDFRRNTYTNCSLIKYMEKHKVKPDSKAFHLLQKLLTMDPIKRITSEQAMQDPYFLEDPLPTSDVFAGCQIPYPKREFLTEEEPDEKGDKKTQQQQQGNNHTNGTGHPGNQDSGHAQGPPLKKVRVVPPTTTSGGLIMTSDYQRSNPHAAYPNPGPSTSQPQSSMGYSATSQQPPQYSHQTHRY
Ribosomal protein S6 kinase alpha-6 (Homo sapiens), sequence (Q9UK32 whole entry, the tested form may be a part): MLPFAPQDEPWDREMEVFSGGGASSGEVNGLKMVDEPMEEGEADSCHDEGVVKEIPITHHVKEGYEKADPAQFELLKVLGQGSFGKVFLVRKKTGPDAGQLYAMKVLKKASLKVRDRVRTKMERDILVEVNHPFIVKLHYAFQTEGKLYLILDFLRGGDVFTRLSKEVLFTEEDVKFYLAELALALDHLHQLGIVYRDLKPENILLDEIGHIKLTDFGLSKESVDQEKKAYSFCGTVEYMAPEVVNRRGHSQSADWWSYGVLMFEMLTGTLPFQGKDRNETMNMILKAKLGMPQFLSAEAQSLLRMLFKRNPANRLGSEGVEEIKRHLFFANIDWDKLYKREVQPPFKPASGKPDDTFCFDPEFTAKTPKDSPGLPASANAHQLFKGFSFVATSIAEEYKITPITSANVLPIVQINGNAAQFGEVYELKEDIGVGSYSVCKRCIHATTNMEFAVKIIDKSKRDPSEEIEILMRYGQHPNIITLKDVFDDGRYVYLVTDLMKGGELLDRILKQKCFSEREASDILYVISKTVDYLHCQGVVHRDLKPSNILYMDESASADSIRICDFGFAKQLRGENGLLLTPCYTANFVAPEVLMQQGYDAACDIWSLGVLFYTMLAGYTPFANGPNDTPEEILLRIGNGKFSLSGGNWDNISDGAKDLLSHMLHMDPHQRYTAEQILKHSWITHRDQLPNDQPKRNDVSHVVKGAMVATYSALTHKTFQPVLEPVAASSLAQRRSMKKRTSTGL
Death-associated protein kinase 1 (Homo sapiens), sequence (P53355 whole entry, looked up): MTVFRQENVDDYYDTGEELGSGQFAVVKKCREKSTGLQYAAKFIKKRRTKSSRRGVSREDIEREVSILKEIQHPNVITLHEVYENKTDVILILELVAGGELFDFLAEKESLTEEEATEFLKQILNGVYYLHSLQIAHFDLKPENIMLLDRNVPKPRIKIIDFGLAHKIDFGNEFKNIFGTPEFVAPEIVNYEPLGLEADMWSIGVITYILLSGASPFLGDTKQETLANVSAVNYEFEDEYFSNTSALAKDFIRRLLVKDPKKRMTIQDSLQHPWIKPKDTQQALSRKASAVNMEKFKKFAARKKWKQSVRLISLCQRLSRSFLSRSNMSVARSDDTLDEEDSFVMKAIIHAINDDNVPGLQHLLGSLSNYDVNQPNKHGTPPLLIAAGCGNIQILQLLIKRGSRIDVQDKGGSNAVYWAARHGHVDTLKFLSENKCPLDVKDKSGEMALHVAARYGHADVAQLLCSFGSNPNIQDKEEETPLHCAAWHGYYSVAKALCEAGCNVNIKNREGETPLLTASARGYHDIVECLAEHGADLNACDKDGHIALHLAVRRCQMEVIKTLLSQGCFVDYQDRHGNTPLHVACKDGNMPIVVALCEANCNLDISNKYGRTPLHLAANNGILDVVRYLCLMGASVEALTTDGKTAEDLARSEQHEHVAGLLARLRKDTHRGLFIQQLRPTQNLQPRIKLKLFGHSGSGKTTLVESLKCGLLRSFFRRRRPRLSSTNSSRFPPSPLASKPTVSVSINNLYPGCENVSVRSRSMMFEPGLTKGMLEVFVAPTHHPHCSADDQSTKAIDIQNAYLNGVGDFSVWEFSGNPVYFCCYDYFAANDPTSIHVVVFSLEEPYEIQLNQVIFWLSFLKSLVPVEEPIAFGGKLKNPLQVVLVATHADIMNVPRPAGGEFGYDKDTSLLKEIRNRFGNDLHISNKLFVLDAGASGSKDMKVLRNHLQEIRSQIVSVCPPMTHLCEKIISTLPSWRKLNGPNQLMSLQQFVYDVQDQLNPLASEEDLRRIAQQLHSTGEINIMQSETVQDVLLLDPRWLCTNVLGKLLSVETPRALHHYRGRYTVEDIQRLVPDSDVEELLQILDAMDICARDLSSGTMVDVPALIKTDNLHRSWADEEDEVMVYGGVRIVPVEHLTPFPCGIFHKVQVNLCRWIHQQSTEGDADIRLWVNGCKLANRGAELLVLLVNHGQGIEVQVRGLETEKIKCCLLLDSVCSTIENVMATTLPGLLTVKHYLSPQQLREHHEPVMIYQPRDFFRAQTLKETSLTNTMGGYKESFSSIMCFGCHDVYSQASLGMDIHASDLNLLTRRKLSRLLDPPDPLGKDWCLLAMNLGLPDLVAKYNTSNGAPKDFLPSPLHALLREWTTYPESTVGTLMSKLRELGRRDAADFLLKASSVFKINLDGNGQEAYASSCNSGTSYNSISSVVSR
Mitogen-activated protein kinase 14 (Homo sapiens), sequence (Q16539 whole entry): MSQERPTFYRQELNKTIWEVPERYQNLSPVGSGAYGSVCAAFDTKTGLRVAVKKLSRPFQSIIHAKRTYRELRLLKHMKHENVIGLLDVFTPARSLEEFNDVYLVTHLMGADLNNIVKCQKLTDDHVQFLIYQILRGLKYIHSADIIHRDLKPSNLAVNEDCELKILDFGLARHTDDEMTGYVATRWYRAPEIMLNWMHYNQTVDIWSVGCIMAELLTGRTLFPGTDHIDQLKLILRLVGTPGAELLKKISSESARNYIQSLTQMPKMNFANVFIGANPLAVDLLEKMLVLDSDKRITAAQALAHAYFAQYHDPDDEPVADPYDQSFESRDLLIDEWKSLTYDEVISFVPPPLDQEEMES
Casein kinase I isoform gamma-3 (Homo sapiens), sequence (Q9Y6M4 whole entry, looked up, canonical isoform): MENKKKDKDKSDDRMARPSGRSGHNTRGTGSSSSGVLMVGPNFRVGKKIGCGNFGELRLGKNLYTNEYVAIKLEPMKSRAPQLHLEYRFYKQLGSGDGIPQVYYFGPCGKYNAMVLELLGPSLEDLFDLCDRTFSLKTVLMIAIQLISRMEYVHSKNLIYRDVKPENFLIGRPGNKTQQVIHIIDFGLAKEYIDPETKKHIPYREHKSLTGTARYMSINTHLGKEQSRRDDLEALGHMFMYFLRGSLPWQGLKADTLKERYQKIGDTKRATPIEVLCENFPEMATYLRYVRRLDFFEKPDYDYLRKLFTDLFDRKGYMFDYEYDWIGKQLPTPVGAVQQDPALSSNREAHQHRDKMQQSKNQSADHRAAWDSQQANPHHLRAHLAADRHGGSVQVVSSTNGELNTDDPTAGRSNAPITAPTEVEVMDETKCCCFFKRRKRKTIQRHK
Casein kinase I isoform gamma-1 (Homo sapiens), sequence (Q9HCP0 whole entry, looked up, canonical isoform): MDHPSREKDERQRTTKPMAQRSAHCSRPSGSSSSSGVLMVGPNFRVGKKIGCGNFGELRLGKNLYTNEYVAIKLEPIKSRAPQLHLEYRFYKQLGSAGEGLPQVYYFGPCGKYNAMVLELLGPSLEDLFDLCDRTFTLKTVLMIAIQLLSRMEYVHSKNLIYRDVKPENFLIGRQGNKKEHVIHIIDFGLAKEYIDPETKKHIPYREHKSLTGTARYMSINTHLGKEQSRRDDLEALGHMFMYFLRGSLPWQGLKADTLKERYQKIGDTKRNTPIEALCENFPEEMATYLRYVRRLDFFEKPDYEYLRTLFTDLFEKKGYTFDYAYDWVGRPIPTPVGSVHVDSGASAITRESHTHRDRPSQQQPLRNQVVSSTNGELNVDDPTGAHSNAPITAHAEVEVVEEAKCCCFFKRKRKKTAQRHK
Dual specificity tyrosine-phosphorylation-regulated kinase 1B (Homo sapiens), sequence (Q9Y463 whole entry, looked up, canonical isoform): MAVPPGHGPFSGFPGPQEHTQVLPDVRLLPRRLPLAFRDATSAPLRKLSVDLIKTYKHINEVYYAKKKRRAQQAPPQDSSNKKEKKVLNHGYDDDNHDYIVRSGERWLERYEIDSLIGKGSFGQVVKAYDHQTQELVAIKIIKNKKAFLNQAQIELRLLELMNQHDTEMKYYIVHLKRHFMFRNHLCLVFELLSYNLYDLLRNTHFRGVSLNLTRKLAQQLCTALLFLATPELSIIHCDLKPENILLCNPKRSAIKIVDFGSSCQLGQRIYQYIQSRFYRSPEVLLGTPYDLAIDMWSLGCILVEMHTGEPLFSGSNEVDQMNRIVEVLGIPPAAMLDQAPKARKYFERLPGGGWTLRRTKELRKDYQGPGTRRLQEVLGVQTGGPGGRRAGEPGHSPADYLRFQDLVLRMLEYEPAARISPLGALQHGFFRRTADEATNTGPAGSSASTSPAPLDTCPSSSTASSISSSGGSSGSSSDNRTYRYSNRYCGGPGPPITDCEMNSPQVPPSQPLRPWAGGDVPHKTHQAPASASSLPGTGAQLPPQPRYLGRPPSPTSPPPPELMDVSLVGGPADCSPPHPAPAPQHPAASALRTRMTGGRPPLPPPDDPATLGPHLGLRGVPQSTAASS

Consider `Cn1cc(-c2ccc(-c3cncc(Cl)c3N3CCC4(CCNC4=O)CC3)cc2)cn1`, for which, in the experiment with Mus musculus, the result was Active.
In the case of `COCc1cc(C)nc2sc(C(N)=O)c(N)c12`, the Activity was determined as 72% in [1]; 46% in experiment [2]; 61% in [3]; 94% in the experiment filed under Homo sapiens; 25% in [4]; 88% in [5]. For the same compound, the Activity was found to be 41% in [6]; 14% in experiment [7]; 10% in experiment [8]; 73% in experiment [9]; 0% in experiment [10]; 95% in experiment [11]. The Activity was 67% in [12]; 11% in experiment [13]; 84% in experiment [14]; 87% in experiment [15]; 84% in [16]; 50% in experiment [17]. Besides, the outcome with Mus musculus was Active.
For the compound `NC(=O)c1sc2nccc(N3CCCN(c4ccccc4)CC3)c2c1N`, the result in the experiment on Mus musculus was Active. In addition, in experiment [18], the inhibition result was “Dose-dependent effect”.
`Cc1c(Br)c(Br)c2c3c1nc(N1CCNCC1)n3CCC2`: the result (with Mus musculus; in [19]; in experiment [20]; in experiment [21]; in experiment [22]) was Active.
Consider `CN1CCN(C(=O)c2ccc3cc(CCNc4ncnc5ccc(C#N)cc45)ccc3c2)CC1`, for which the result (with Mus musculus; in experiment [19]; in experiment [20]; in experiment [21]; in [22]) was Active.
Turning to `N#Cc1ccc2ncnc(NCCc3ccccc3)c2c1`, the result in the experiment on Mus musculus was Active. Besides, the Activity is recorded as 65% in experiment [23] and 77% in experiment [24].
On to `CN(C)C(=O)Cc1ccc(N2CCCN(c3ccnc4sc(C(N)=O)c(N)c34)CC2)cc1`, for which the outcome (in the experiment on Mus musculus; in [19]; in experiment [20]; in [21]; in experiment [22]) was Active. Further, the Activity in [25] was 63%; in [26], 70%. Moreover, in experiment [18], the inhibition entry is “Dose-dependent effect”.
`CN(C)c1ccnc2sc(C(N)=O)c(N)c12`: the outcome in the experiment with Mus musculus was Active. In addition, the inhibition entry in experiment [18] is “Dose-dependent effect”.
In the case of `Cc1c(C(N)=O)sc2nc(C(F)(F)F)cc(N)c12`, the result with Mus musculus was Active.
For `CCc1nc2sc(C(N)=O)c(N)c2c2c1CCCC2`, the outcome in the experiment on Mus musculus was Active.
Regarding `Cn1ncc2cc(-c3cnc(N)c(Cl)c3N3CCC4(CCNC4=O)CC3)ccc21`, the result with Mus musculus was Active. For the same compound, the ECmax result in [27] was “inactive”.
Take `COc1ccc(-c2cc(C3CC3)nc3sc(C(N)=O)c(N)c23)cc1`: the outcome in the experiment on Mus musculus was Active.

Values taken from ChEMBL document CHEMBL4742393, “Compounds for treatment of hypoproliferative disorders” (2019).
